Legend:
[1] = 100.7 kPa, Liquid; for speed of sound: Frequency=3 MHz, Sing-around technique in a fixed-path interferometer; for mass density: Vibrating tube method
[2] = refractive index (Na D-line) (dimensionless); conditions: 100.7 kPa, Liquid, Standard Abbe refractometry
[3] = refractive index (Na D-line) (dimensionless); xn = mol fraction of the nth substance listed; conditions: 100.7 kPa, Liquid, Standard Abbe refractometry, x2 = 0
[4] = xn = mol fraction of the nth substance listed; conditions: 100.7 kPa, Liquid, x2 = 0; for speed of sound: Frequency=3 MHz, Sing-around technique in a fixed-path interferometer; for mass density: Vibrating tube method

C1CCOC1 [tetrahydrofuran]
Conditions | mass density, [1] [kg/m3] | refractive index, [2] | speed of sound, [1] [m/s]
293.15 K | 888.766 | 1.40696 | 1305
298.15 K | 883.297 | 1.4042 | 1280.8
303.15 K | 877.809 | 1.40157 | 1256.8
308.15 K | 872.279 | 1.39885 | 1232.9
313.15 K | 866.713 | 1.39623 | 1209.2
318.15 K | 861.106 | 1.39349 | 1185.7
323.15 K | 855.456 | 1.39083 | 1162.3

C1CCOC1 [tetrahydrofuran] + CCCCCCCC[n+]1ccn(C)c1.F[P-](F)(F)(F)(F)F
Conditions | mass density, [4] [kg/m3] | refractive index, [3] | speed of sound, [4] [m/s]
293.15 K | 888.766 | 1.40696 | 1305
298.15 K | 883.297 | 1.4042 | 1280.8
303.15 K | 877.809 | 1.40157 | 1256.8
308.15 K | 872.279 | 1.39885 | 1232.9
313.15 K | 866.713 | 1.39623 | 1209.2
318.15 K | 861.106 | 1.39349 | 1185.7
323.15 K | 855.456 | 1.39083 | 1162.3

C1CCOC1 [tetrahydrofuran] + CCCCCCn1cc[n+](C)c1.F[P-](F)(F)(F)(F)F
Conditions | mass density, [4] [kg/m3] | refractive index, [3] | speed of sound, [4] [m/s]
293.15 K | 888.766 | 1.40696 | 1305
298.15 K | 883.297 | 1.4042 | 1280.8
303.15 K | 877.809 | 1.40157 | 1256.8
308.15 K | 872.279 | 1.39885 | 1232.9
313.15 K | 866.713 | 1.39623 | 1209.2
318.15 K | 861.106 | 1.39349 | 1185.7
323.15 K | 855.456 | 1.39083 | 1162.3

CCCCCCn1cc[n+](C)c1.F[P-](F)(F)(F)(F)F [1-hexyl-3-methylimidazolium hexafluorophosphate]
Conditions | mass density, [1] [kg/m3] | refractive index, [2] | speed of sound, [1] [m/s]
293.15 K | 1296.72 | 1.41958 | 1437.7
298.15 K | 1292.62 | 1.41832 | 1424.3
303.15 K | 1288.61 | 1.41692 | 1411.5
308.15 K | 1284.72 | 1.41564 | 1399
313.15 K | 1280.82 | 1.41422 | 1386.9
318.15 K | 1276.37 | 1.41306 | 1375
323.15 K | 1272.45 | 1.41175 | 1363.3

CCCCn1cc[n+](C)c1.F[P-](F)(F)(F)(F)F [1-butyl-3-methylimidazolium hexafluorophosphate]
Conditions | mass density, [1] [kg/m3] | refractive index, [2] | speed of sound, [1] [m/s]
293.15 K | 1370.41 | 1.41068 | 1454.6
298.15 K | 1366.26 | 1.40943 | 1442.3
303.15 K | 1362.13 | 1.40818 | 1430.2
308.15 K | 1357.86 | 1.40693 | 1418.4
313.15 K | 1353.88 | 1.40567 | 1406.7
318.15 K | 1349.88 | 1.40443 | 1395.2
323.15 K | 1345.57 | 1.40312 | 1384.1

CCCCCCCC[n+]1ccn(C)c1.F[P-](F)(F)(F)(F)F [1-octyl-3-methylimidazolium hexafluorophosphate]
Conditions | mass density, [1] [kg/m3] | refractive index, [2] | speed of sound, [1] [m/s]
293.15 K | 1238.77 | 1.42441 | 1421.2
298.15 K | 1234.79 | 1.42312 | 1406.5
303.15 K | 1230.84 | 1.42171 | 1392.4
308.15 K | 1227.09 | 1.42029 | 1379
313.15 K | 1223.3 | 1.41888 | 1365.8
318.15 K | 1219.5 | 1.4175 | 1351.2
323.15 K | 1215.42 | 1.41601 | 1338

C1CCOC1 [tetrahydrofuran] + CCCCn1cc[n+](C)c1.F[P-](F)(F)(F)(F)F
Conditions | mass density, [4] [kg/m3] | refractive index, [3] | speed of sound, [4] [m/s]
293.15 K | 888.766 | 1.40696 | 1305
298.15 K | 883.297 | 1.4042 | 1280.8
303.15 K | 877.809 | 1.40157 | 1256.8
308.15 K | 872.279 | 1.39885 | 1232.9
313.15 K | 866.713 | 1.39623 | 1209.2
318.15 K | 861.106 | 1.39349 | 1185.7
323.15 K | 855.456 | 1.39083 | 1162.3

Source: the NIST ThermoML archive (doi:10.1016/j.jct.2015.02.011)
